PMC8916643, “Molecular physiology of pumiliotoxin sequestration in a poison frog” (PLoS ONE, 2022)

Legend:
Assay in all cases: CiPA cell-based QPatch ion channel inhibition
Conditions in all cases: maximum concentration of 30 uM
Kv4.3/KChIP2 = target: T1, Kv4.3/KChIP2 (Homo sapiens, UniProt Q9UK17)
T1 construct: Eurofins Discovery Services (Eurofins Panlabs Inc) ran the assay
T1 sequence (Q9UK17 1-655): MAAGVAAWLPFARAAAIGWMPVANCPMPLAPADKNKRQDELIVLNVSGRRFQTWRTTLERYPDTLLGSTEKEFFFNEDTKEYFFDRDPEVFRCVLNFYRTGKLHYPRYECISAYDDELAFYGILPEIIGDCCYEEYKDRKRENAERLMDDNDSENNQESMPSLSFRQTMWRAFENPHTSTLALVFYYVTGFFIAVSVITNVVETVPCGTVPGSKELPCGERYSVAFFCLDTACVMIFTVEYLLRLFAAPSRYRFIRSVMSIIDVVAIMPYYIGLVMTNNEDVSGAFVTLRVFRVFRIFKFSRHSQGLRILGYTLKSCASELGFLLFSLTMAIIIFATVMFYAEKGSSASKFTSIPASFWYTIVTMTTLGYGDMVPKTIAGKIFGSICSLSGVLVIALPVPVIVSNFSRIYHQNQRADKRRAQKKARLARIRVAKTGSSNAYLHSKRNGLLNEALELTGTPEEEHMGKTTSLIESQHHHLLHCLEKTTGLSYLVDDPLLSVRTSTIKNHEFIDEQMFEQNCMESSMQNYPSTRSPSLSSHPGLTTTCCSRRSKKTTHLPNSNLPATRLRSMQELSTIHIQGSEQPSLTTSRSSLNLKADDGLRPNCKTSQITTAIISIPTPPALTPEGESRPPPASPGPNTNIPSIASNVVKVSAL
T1 sequence (Q9NS61 1-270 partner): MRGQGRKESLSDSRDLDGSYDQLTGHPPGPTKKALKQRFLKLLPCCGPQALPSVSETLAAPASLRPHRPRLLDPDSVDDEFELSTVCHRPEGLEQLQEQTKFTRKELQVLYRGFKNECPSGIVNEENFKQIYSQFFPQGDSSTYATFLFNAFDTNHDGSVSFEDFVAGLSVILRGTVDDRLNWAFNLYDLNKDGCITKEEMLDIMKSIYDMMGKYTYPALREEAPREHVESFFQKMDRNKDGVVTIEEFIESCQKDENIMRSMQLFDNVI
Procedure: (§1) Assays for human CYP activity (CYP phenotyping), CYP2D6 metabolite discovery (metID), ion channel inhibition (CiPA), and G-protein coupled receptor (GPCR) activity (gpcrMAX) were performed through Eurofins Discovery Services (Eurofins Panlabs Inc, St. Charles MO, USA). In the CYP phenotyping panel, human recombinant CYP1A2, CYP2B6, CYP2C8, CYP2C9, CYP2C19, CYP2D6, and CYP3A4 were included in the assay. A concentration of 1E-07 M of PTX 251D was tested, and the percent compound remaining was quantified at 0, 15, 30, 45, and 60 minutes using HPLC-MS/MS. As a positive control, a reference compound was used for each CYP tested (see S1 File for results). In the CYP2D6 metabolism assay, human recombinant CYP2D6 was incubated with an initial concentration of 10 μM and metabolites were quantified after 90 minutes using LC-MS/MS. Two replicates were used for the CYP phenotyping panel and one replicate was used for CYP2D6 metabolite assay. The CiPA assay was a cell-based QPatch on voltage-gated sodium channel NaV1.5 (peak and late/agonist), voltage-gated potassium channels Kv4.3/KChIP2, hERG, KCNQ1/minK, Kir2.1, and voltage-gated calcium channel Cav1.2. The concentrations of PTX 251D assayed were 3, 10, and 30 μM, and a reference compound for each channel was used (see S1 File for results and individual QPatch parameters). In the gpcrMAX assay a panel of 165 GPCRs was tested through the DiscoverX PathHunter beta-arrestin enzyme fragment complementation technology, and a concentration of 10 μM PTX 251D was tested for both agonist and antagonist activity along with a reference compound for each GPCR (see S1 File for results).

[1] = target: T2, voltage-gated calcium channel Cav1.2 (Homo sapiens, UniProt Q13936)
T2 construct: Eurofins Discovery Services (Eurofins Panlabs Inc) ran the assay
Procedure: as §1

Kir2.1 = target: T3, Kir2.1 (Homo sapiens, UniProt P63252)
T3 construct: Eurofins Discovery Services (Eurofins Panlabs Inc) ran the assay
T3 sequence (P63252 1-427): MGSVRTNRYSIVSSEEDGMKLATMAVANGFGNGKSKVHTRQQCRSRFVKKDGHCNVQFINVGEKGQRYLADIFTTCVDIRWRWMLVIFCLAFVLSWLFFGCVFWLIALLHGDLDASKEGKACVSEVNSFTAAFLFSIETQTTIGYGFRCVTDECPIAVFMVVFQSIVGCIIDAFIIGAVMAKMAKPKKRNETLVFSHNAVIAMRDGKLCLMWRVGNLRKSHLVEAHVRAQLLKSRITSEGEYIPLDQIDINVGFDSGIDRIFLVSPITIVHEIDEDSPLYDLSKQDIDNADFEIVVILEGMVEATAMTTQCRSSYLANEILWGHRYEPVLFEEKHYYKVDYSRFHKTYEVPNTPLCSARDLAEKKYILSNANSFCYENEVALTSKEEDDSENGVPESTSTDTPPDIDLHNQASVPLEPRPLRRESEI
Procedure: as §1

[2] = target: T4, voltage-gated sodium channel NaV1.5 (Homo sapiens, UniProt Q14524)
T4 construct: Eurofins Discovery Services (Eurofins Panlabs Inc) ran the assay
Procedure: as §1

hERG = target: T5, hERG (Homo sapiens, UniProt Q12809)
T5 construct: Eurofins Discovery Services (Eurofins Panlabs Inc) ran the assay
Procedure: as §1

KCNQ1/minK = target: T6, KCNQ1/minK (Homo sapiens, UniProt P51787)
T6 construct: Eurofins Discovery Services (Eurofins Panlabs Inc) ran the assay
Procedure: as §1

T4 sequence (Q14524 whole entry): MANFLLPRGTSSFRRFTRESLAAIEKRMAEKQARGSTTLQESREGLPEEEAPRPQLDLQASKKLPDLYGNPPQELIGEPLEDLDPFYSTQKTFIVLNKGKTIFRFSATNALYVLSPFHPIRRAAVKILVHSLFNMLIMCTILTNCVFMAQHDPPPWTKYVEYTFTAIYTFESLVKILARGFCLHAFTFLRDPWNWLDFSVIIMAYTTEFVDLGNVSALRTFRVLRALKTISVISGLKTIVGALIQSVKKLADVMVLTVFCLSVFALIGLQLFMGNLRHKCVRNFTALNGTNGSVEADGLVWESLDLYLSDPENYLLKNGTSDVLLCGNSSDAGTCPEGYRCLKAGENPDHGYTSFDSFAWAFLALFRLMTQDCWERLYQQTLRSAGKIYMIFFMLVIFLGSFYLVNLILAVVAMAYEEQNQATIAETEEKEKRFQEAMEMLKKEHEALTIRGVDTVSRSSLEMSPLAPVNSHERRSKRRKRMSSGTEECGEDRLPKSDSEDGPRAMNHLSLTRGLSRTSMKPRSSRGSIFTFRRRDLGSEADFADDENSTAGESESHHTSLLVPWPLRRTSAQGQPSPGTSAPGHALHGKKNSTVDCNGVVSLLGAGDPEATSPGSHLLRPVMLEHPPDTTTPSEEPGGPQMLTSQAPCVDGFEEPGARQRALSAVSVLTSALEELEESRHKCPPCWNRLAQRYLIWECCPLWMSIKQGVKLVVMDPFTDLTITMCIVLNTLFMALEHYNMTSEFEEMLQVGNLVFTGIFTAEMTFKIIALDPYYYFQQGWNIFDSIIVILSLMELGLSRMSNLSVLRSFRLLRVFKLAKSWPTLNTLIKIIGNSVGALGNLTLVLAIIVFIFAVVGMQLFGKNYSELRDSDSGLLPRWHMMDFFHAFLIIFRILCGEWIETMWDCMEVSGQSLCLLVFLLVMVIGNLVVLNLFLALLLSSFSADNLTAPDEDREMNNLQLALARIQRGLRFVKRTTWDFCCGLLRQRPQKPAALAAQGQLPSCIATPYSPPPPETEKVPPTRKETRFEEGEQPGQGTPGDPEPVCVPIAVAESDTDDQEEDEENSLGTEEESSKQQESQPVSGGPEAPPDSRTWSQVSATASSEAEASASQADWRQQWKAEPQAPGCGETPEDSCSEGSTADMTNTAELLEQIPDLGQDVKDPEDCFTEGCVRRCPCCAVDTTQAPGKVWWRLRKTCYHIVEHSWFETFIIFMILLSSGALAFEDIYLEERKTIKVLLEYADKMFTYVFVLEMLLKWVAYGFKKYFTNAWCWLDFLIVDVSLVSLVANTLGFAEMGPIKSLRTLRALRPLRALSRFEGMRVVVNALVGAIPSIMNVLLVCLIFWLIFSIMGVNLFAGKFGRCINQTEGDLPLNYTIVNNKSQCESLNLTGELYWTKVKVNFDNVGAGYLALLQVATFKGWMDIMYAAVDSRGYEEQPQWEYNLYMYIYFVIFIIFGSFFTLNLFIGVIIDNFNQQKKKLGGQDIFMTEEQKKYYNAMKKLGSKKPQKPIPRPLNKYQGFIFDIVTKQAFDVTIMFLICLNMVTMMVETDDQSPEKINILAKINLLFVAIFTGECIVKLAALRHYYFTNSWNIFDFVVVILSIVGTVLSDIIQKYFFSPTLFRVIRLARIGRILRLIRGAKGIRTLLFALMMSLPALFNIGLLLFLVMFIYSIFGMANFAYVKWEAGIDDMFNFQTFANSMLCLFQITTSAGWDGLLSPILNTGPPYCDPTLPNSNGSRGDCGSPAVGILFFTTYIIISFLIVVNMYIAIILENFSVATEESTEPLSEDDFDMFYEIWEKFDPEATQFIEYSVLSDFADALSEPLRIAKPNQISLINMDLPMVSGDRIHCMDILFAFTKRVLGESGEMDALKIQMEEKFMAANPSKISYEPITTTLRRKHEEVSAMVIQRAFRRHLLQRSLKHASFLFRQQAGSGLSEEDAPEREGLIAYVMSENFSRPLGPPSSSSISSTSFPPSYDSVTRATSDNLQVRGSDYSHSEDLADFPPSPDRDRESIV
T5 sequence (Q12809 whole entry): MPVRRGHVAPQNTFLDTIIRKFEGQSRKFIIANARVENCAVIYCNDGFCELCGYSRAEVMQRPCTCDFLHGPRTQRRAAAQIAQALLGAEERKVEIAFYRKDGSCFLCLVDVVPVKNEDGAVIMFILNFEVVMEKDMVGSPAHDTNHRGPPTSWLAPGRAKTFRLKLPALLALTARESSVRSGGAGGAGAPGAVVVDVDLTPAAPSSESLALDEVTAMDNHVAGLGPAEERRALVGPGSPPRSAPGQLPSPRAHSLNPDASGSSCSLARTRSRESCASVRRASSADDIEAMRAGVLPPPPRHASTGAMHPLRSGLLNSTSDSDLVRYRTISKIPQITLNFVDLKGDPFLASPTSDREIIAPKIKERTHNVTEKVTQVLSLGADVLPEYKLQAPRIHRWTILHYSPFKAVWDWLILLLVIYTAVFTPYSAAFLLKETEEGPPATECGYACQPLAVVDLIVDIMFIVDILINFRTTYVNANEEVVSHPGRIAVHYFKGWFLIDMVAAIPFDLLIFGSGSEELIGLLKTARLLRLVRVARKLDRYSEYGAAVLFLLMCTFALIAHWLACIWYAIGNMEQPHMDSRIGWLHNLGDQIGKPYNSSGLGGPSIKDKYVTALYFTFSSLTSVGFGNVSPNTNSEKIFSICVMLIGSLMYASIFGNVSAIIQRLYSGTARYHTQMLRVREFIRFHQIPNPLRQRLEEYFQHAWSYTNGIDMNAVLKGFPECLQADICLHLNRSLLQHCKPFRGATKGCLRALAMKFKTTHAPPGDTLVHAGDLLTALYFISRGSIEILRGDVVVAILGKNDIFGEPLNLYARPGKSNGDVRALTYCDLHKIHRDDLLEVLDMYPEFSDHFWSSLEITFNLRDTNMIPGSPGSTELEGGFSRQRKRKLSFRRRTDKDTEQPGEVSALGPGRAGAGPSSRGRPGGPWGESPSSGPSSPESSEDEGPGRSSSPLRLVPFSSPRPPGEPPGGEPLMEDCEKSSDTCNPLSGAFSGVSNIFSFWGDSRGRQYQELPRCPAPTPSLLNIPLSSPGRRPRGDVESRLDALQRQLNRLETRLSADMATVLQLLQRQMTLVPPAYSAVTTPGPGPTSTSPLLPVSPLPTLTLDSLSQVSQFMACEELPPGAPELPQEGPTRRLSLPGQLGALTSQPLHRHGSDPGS
T6 sequence (P51787 whole entry): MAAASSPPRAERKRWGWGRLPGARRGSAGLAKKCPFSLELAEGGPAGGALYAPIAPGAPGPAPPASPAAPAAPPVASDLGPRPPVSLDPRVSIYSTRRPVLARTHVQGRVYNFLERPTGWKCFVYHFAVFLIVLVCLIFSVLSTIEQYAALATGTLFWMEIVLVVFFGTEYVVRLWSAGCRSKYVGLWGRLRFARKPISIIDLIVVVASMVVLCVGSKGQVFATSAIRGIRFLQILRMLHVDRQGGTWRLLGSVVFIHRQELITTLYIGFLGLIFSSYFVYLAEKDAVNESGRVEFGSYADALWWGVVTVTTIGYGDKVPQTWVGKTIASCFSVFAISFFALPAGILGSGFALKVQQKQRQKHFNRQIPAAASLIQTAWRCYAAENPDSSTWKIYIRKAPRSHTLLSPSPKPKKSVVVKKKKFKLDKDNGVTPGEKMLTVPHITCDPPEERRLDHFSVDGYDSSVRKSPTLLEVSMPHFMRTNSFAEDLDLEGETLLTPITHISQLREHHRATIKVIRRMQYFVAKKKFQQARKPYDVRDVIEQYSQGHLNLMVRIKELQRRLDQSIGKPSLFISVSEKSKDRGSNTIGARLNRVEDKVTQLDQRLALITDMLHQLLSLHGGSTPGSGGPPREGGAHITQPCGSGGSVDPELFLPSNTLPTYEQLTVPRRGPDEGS

CCCCC(C)C=C1CN2CCCC2C(C)(O)C1 (stereo not drawn) [PTX 251D, pumiliotoxin (PTX 251D)]
no inhibitory effect: inhibitory effect on Kv4.3/KChIP2 (Kv4.3/KChIP2) | inhibitory effect on Cav1.2 [1] | inhibitory effect on Kir2.1 (Kir2.1) | inhibitory effect on NaV1.5 [2] | inhibitory effect on hERG (hERG) | inhibitory effect on KCNQ1/minK (KCNQ1/minK)
